How the values were obtained:
PGK1 [1] = assay: Hypoxia-induced mitochondrial translocation of PGK1 (mitochondrial fractionation, immunoblotting, immunofluorescence); type: cell-based, human
Procedure: (§1) FIG. 1B. […] FIG. 1C. […] Arrows indicate representative staining of mitochondrial PGK1. Dashed circles indicate mitochondria. FIG. 1D. […] Tubulin was used as a cytosolic protein marker. FIG. 1E. […] Mitochondria fractions and total cell lysates were prepared. FIG. 1F. […] Mitochondria fractions and total cell lysates were prepared. FIG. 1G. […] FIG. 1H. […] FIG. 1I. […] Mitochondrial fractions and total cell lysates were prepared.
FIGS. 9A-E. Hypoxia Induces Mitochondrial Translocation of PGK1. FIG. 9A. Total cell lysate, cytosolic, and mitochondrial fractions were prepared from U87 and U251 cells stimulated with or without hypoxia for 6 h. Immunoblotting analyses were performed with the indicated antibodies. Hypoxia-induced HIF1α expression (left panel) was a control for hypoxic stimulation. WCL: whole-cell lysate; Cyto: cytosol; Mito: mitochondria. WB, Western blot. FIG. 9B. Cytosolic and mitochondrial fractions were prepared from U87 and U251 cells stimulated with hypoxia for 6 h. Immunoblotting analyses of equal percentages of cytosolic and mitochondrial fraction were performed with the indicated antibodies. WCL: whole-cell lysate; Cyto: cytosol; Mito: mitochondria. Immunoblotting analyses were performed with the indicated antibodies. The images were quantified by scanning densitometry. FIG. 9C. U87 cells transfected with HIF1α siRNA or a scrambled siRNA before hypoxia stimulation for 6 h. […]

PGK1 S203 = assay: Hypoxia-induced PGK1 S203 phosphorylation in U87 cells (streptavidin pull-down / immunoblotting); type: cell-based, human
Procedure: as §1
FIGS. 11A-J. ERK1/2-mediated PGK1 S203 Phosphorylation Is Required for Mitochondrial Translocation of PGK1. Immunofluorescence, immunoprecipitation, and immunoblotting analyses were performed with the indicated antibodies. FIG. 11A. U87 cells stimulated with or without hypoxia for 6 h were stained with the indicated antibody, MitoTracker, and DAPI. FIG. 11B. […] FIG. 11C. U87 cells were stably transfected with or without vectors expressing HA-MEK1 Q56P with the indicated Flag-ERK2 proteins. Total cell lysates were prepared. FIG. 11D. […] FIG. 11E. Anti-PGK1 pS203 antibody was used to deplete the phosphorylated PGK1 from total cell lysates prepared from U87 cells treated with or without hypoxia for 6 h. The images were quantified by scanning densitometry. […] FIG. 11H. […] FIG. 11I. […] Mitochondria fractions and total cell lysates were prepared. FIG. 11J.
Streptavidin or glutathione agarose beads were incubated with cell lysate (1 mg/ml) or purified protein for 12 h. […]

ERK1/2 = assay: Immunoblotting of hypoxia-induced ERK1/2 phosphorylation/activation in U87 cells; type: cell-based, human
Procedure: (§2) FIGS. 10A-I. Mitochondrial Translocation of PGK1 is depended on ERK1/2-mediated PGK1 Phosphorylation. FIG. 10A. […] Immunoblotting analyses were performed with the indicated antibodies. FIG. 10B. […] Immunoblotting analyses were performed with the indicated antibodies. FIG. 10C. […] Immunofluorescence analyses were carried out using an anti-PGK1 antibody, MitoTracker, and DAPI. FIG. 10D. U87 cells stably transfected with a vector or Flag-ERK2 K52R were treated with or without hypoxia for 6 h. Mitochondria fractions and total cell lysates were prepared. FIG. 10E. U87 cells were stably transfected with or without vectors expressing HA-MEK1 Q56P with the indicated Flag-ERK2 proteins. Mitochondria fractions and total cell lysates were prepared. Immunoblotting analyses were performed with the indicated antibodies. FIG. 10F. U87 cells were treated with or without hypoxia for 6 h. […] FIG. 10G. Immobilized GST or GST-PGK1 protein was incubated with purified recombinant His-ERK2. Immunoblotting analyses were performed with the indicated antibodies. FIG. 10H. […] Immunoblotting analyses were performed with the indicated antibodies. FIG. 10I. […] Immunoblotting analyses were performed with the indicated antibodies.
FIGS. 11A-J. ERK1/2-mediated PGK1 S203 Phosphorylation Is Required for Mitochondrial Translocation of PGK1. […] The images were quantified by scanning densitometry. […]

EGFR = assay: Immunoblotting of hypoxia-induced EGFR phosphorylation in U87 cells; type: cell-based, human; details: AG1478 100 nM for 30 min before hypoxia 6 h
PGK1 [2] = assay: Determining KM of PGK1 (PGK1-dependent PDHK phosphorylation, Lineweaver-Burke plot); type: biochemical, human; details: purified recombinant WT PGK1, Sumo-PDHK1, 37° C., means ±SD of three experiments; read-out: Km of ATP for PGK1-dependent PDHK phosphorylation
Procedure: FIGS. 14A-P. Mitochondrial PGK1 Phosphorylates PDHK1 at T338. FIG. 14A. […] Immunoblotting analyses were performed with the indicated antibodies. FIG. 14B. U87 cells (left panel) or U87/EGFR (right panel) cells expressing PGK1 shRNA with or without reconstituted expression of WT rPGK1 and the indicated mutants were stimulated with or without hypoxia for 6 h (left panel) or EGF (100 ng/ml) (right panel) for 6 h. These cells were incubated with [1-^14C]-pyruvate for 2 h. [1-^14C]CO2 production rates were measured. FIG. 14C. U87 cells expressing SFB-PDHK1, SFB-PDHK2, SFB-PDHK3, or SFB-PDHK4 were stimulated with or without hypoxia for 6 h. Mitochondrial fractions of these cells were prepared. […] ATP concentrations in mitoplast isolated from U87 or U251 cells treated with or without hypoxia for 6 h were measured. […] The glycolytic activities of bacterially purified WT PGK1, PGK1 T378P, PGK1 S203A, and PGK1 R39/K41A were measured. […]
Purified recombinant WT PGK1 (0.2 ng) was incubated in 100 μl of reaction buffer (50 mM Tris-HCl [pH 7.5], 600 ng/μl Sumo-PDHK1, 5 mM MgSO4, 1 mM Na3VO4, 1 mM DTT, 1.8 mM phosphorenolpyruvate, 7 units pyruvate kinase, 10 units lactic dehydrogenase, 0.01 mM NADH) with indicated ATP concentration at 37° C. in 96-well plate and were read by multidetection microplate readers (BMG LABTECH, Cary, N.C.) at 339 nm in kinetic mode for 5 min. […]

U87 cells = assay: Cell proliferation assay under hypoxia; type: cell-based, human; details: PGK1-depleted U87 cells reconstituted with WT PGK1 or PGK1 R39/K41A, DTT 1 mM, hypoxia 4 days
Procedure: FIGS. 17A-H. Mitochondrial PGK1-Dependent PDHK1 Phosphorylation Promotes Cell Proliferation and Brain Tumorigenesis. FIGS. 17A-C. Data represent the means ±SD of three independent experiments. FIG. 17A. A total of 2×10^5 U251 cells with or without PGK1 shRNA (left panel) or PDHK1 shRNA (right panel) expression and with or without reconstituted expression of their WT counterparts and the indicated mutants were plated for 4 days under hypoxic conditions. The cells were then collected and counted. FIG. 17B. A total of 2×10^5 endogenous PGK1-depleted U87 cells with reconstituted expression of WT rPGK1 or rPGK1 R39/K41A were plated and treated with or without DTT (1 mM) during hypoxia for 4 days. The cells were then collected and counted. FIG. 17C. Mitochondria fractions and total cell lysates from endogenous PGK1-depleted U87/EGFRvIII cells with reconstituted expression of WT rPGK1 or rPGK1 S203A were prepared. […] The indicated U87/EGFRvIII cells (2×10^5) were plated for 3 days and were counted (right panel). […] The cells were then collected and counted. #p<0.05. […] Tumor volume was calculated using length a and width b: V=ab^2/2. […] Ki67-positive cells were quantified in 10 microscope fields. […] Apoptotic cells were quantified in 10 microscope fields.
A total of […] cells were plated and counted at 4 days after seeding in DMEM with 10% dialyzed bovine calf serum during hypoxia. […]

MAPK/APK2 = assay: Immunoblotting of hypoxia-induced MAPK/APK2 phosphorylation in U87 cells; type: cell-based, human; details: pretreated with SB203580 10 μM for 30 min, hypoxia 6 h
Procedure: as §2

PIN1 and PGK1 = details: U87 cells, U0126 20 μM for 30 min before hypoxia 6 h
Procedure: FIGS. 2A-F and H-I. Immunoblotting and immunoprecipitation analyses were carried out using antibodies against the indicated proteins. FIG. 2A U87 cells were pretreated with or without U0126 (20 μM) for 30 min before hypoxic stimulation for 6 h. […] U87 cells were treated with or without hypoxic stimulation for 6 h. A GST pull-down assay with the indicted GST-proteins was performed. […] U87 cells expressing the indicated PGK1 proteins were treated with or without hypoxic stimulation for 6 h.

PGK1 [3] = details: U87/EGFR cells, U0126 20 μM for 30 min, EGF 100 ng/ml 6 h
Procedure: EGFR-overxpressed U87 (U87/EGFR) cells pretreated with U0126 (20 μM) for 30 min were stimulated with or without EGF (100 ng/ml) for 6 h. Mitochondria fractions and total cell lysates were prepared.
U87, U87/EGFR, and U251 human GBM cells, BxPC-3 human pancreatic cancer cells, CHL1 human melanoma cells, and mouse embryo fibroblast (MEF) cells were maintained in Dulbecco's modified Eagle's medium (DMEM) supplemented with 10% dialyzed bovine calf serum without pyruvate (HyClone, Logan, Utah). […] For EGF treatments, cell cultures were made quiescent by growing them to confluence, and the medium was replaced with fresh medium containing 0.5% serum for 1 day. EGF at a final concentration of 100 ng/ml was used for cell stimulation.
Mitochondrial and cytosolic fractions were isolated using a mitochondria/cytosol fractionation kit from BioVision (Mountain View, Calif.). Mitochondrial proteins and cytosolic proteins were used in immunoblotting analyses.

[4] = U87 cells, AG1478 100 nM for 30 min before hypoxia 6 h

## COc1cc2ncnc(Nc3cccc(Cl)c3)c2cc1OC [AG1478]
PGK1 [1]; [4]
  hypoxia-induced mitochondrial translocation of PGK1: blocked
PGK1 S203; [4]
  hypoxia-induced phosphorylation of PGK1: blocked
ERK1/2; AG1478 100 nM for 30 min before hypoxia 6 h
  hypoxia-induced ERK activation: blocked
EGFR
  hypoxia-induced EGFR phosphorylation: blocked

## Nc1ncnc2c1ncn2[C@@H]1O[C@H](COP(=O)(O)OP(=O)(O)OP(=O)(O)O)[C@@H](O)[C@H]1O [ATP, adenosine triphosphate]
PGK1 [2]
  Km: 560 ± 53 µM

## O[C@@H](CS)[C@@H](O)CS [DTT]
U87 cells
  hypoxia-induced growth suppression: partially rescued

## C[S+]([O-])c1ccc(-c2nc(-c3ccncc3)c(-c3ccc(F)cc3)[nH]2)cc1 (stereo not drawn) [SB203580]
MAPK/APK2
  hypoxia-induced phosphorylation of MAPK/APK2: blocked

## N#CC(=C(/N)Sc1ccccc1N)/C(C#N)=C(\N)Sc1ccccc1N [U0126]
PIN1 and PGK1
  hypoxia-increased interaction between endogenous PIN1 and PGK1: blocked
PGK1 [1]; U87 and U251 cells, U0126 20 μM for 30 min before hypoxia 6 h
  hypoxia-induced mitochondrial translocation of PGK1: notably reduced
PGK1 S203; U87 cells expressing SFB-tagged PGK1, U0126 20 μM or SP600125 25 μM for 30 min before hypoxia 6 h
  hypoxia-induced PGK1 S203 phosphorylation: abolished
ERK1/2; pretreated with U0126 20 μM for 30 min, hypoxia 6 h
  hypoxia-induced phosphorylation of ERK1/2: blocked
PGK1 [3]
  EGF-induced mitochondrial translocation of PGK1: blocked
